# In patent publication US9815883B2, “Inhibiting peptides derived from TREM-like transcript 1 (TLT-1) and uses thereof” (Institut National de la Sante et de la Recherche Medicale …, priority 2010, dated 2017):
# Legend:
# [1] = tested on: TREM-1 ligand expressed on resting or thrombin-activated human platelets; experiment: Flow cytometry binding of FITC-labelled peptides to human platelets
# Protocol: (B) Flow cytometry analysis of FITC-labelled LR17 (1 or 5 μg/mL) binding to TREM-1 ligand expressed on resting or thrombin-activated (5 UI/mL) human platelets is reversed by co-incubation with unlabelled LR17, sTLT-1 or LP17, a TREM-1 derived peptide.
# Acid Citrate Dextrose blood samples were centrifuged (100 g, 10 min) to obtain Platelet-Rich Plasma. PRP was then centrifuged (550 g, 10 min) over a 36% (wt/vol) BSA gradient and platelets collected from the interphase before being washed in Tyrode's salts buffer (Sigma-Aldrich) supplemented with 5 mM EGTA. For activation, platelets were incubated for 30 minutes with 5 U/mL thrombin (Sigma-Aldrich) or 1 μg/mL E. Coli LPS (0111:B4, Sigma-Aldrich) at 37° C. and subsequently fixed with 2% (wt/vol) paraphormaldehyde (PFA, Sigma-Aldrich). Residual PFA was removed by two additional washing steps in Tyrode buffer. Activation was assessed by anti-CD62P (Beckman Coulter).
# Isolated cells (neutrophils, monocytes or platelets) were blocked for aspecific binding with 10% human Ig (Sigma-Aldrich) for 1 hour on ice. Cells were incubated with recombinant soluble FITC-labelled TLT-1-peptides, FITC-labelled LP17 (or corresponding FITC-labelled scrambled peptides), PE-labelled anti-TREM-1 mAb (R&Dsystems), CD62P-FITC, CD66b-PE, CD45-PE, CD14-FITC (all from Beckman Coulter)
# male Balb/c mice = experiment: Caecal ligation and puncture (CLP) polymicrobial sepsis model; format: in vivo, mouse
# Protocol: Adult male Balb/c mice (20-23 g) were subjected to caecal ligation and puncture under isoflurane anaesthesia and were randomly grouped (n=5-10 per group) to receive a single LR17 (100 μg in 0.2 mL NaCl 0.9%), scrambled-LR17 ([…] in 0.2 mL NaCl 0.9%), or 0.2 mL NaCl 0.9% i.p. injection. After 24 hours, animals were killed under anaesthesia. Results are mean±SD. p values are *p<0.05, **p<0.01, ***p<0.001 compared with control animals.
# (A-B) Adult male Balb/c mice (20-23 g) were subjected to caecal ligation and puncture under isoflurane anaesthesia and were randomly grouped (n=25-40 per group) to receive a LR17, scrambled-LR17, or 0.2 mL NaCl 0.9% i.p. injection at indicated times. Survival was monitored over 1 wk and analyzed by Log Rank test.
# Male Balb/c mice (4-6 weeks) were anesthetized with isoflurane. The cecum was exposed through a 1.0 cm abdominal midline incision and subjected to a ligation of the distal half followed by one puncture with a G21 needle. A small amount of stool was expelled from the puncture to ensure patency. The cecum was replaced into the peritoneal cavity and the abdominal incision closed in two layers. After surgery, all mice were injected s.c. with 0.5 mL of 0.9% NaCl solution for fluid resuscitation. The animals were randomly grouped and treated LR17 or LR17-scrambled as control in 250 μL 0.9% NaCl solution and administered i.p. In order to determine the effect of various doses of LR17 at different times, mice were treated with 50, 100 or 200 μg of LR17 at H1 after surgery, or with 3 injections of 100 μg at 2, 6 and 24 hours or with 100 μg in one injection at 24 hours after CLP and then monitored for survival. Five additional animals per group were killed under anaesthesia at 24 h after CLP for the determination of bacterial count and cytokines levels. Peritoneal lavage fluid was obtained using 2 mL RPMI 1640 (EuroBio), and blood was collected by cardiac puncture. Concentrations of plasma cytokines were determined by ELISA (R&Dsystems). For the assessment of bacterial counts, blood and crushed spleen were plated in serial log dilutions on tryptic soy supplemented with 5% sheep blood agar plates. After plating, tryptic soy agar plates were incubated at 37° C. aerobically for 24 h and anaerobically for 48 h. Results are expressed as CFU per ml of blood or per gram of spleen.
# TREM-1 [2] = experiment: CARD9-MALT1-BCL10 complex formation (immunoprecipitation) in neutrophils; format: cell-based, human; conditions: peptide 30 μg/mL
# Protocol: (B) CARD9-MALT1-BCL10 complex formation: Immunoblot of MALT-1 after immunoprecipitation with anti-BCL10 mAb of lysates of neutrophils stimulated for 20 minutes.
# (B) […] complex formation: Immunoblot of MALT-1 after immunoprecipitation with anti-BCL10 mAb of lysates of neutrophils stimulated for 20 minutes.
# Cells were lysed with CytoBuster Protein Extraction Reagent (Novagen). Samples were normalized by total protein concentration and lysates were pre-cleared before performing Immunoprecipitation. Pre-cleared lysates were then incubated overnight at 4° C. with rabbit-anti-Bcl10 mAb (Cell Signaling) or rabbit-anti-CARD9 (Antibodies Online). Thereafter, anti-rabbit-Ig beads (eBioscience) were added for 1 hour at room temperature. Beads were then washed 3 times, denatured in Laemli buffer 5 minutes at 95° C. and centrifuged at 16,000 g for 1 min.
# [3] = tested on: Trem-1 silenced human monocytes; experiment: TNF-α production by Trem-1 silenced monocytes; format: cell-based; conditions: Trem-1 siRNA; LPS/anti-TREM-1 mAb
# Protocol: (I) ELISA of TNF-α produced by native or Trem-1 silenced human monocytes.
# TREM-1 silencing was performed with Human Monocyte Nucleofector Kit (Amaxa) using siRNA sequences obtained from Qiagen. Isolated monocytes were electroporated with siRNA (without siRNA and with siRNA without electroporation as negative control, and with a GFP-reporter plasmid for positive control) and cultured for 24 hours in Human Monocyte Nucleofector Medium (Amaxa) before stimulation. TREM-1 expression was then assessed by quantitative RT-PCR and flow cytometry 24 hours after transfection. Medium was changed and monocytes were stimulated with LPS, anti-TREM-1 mAb and TLT-1-peptides for 24 hours. Therefore, medium was collected for cytokine measurement.
# TREM-1 [4] = experiment: ROS production by neutrophils (DCFDA, flow cytometry); format: cell-based, human; conditions: peptide 30 μg/mL
# Protocol: (D) ROS production: Flow cytometric quantification (DCFDA reduction) of neutrophils ROS production after 2 hours stimulation.
# The quantitative determination of neutrophil phagocytosis and oxidative burst was performed by flow cytometry using the Phagotest and the Bursttest (Orpegen Pharma, Heidelberg, Germany) following the manufacturers' recommendations. A FITC-labelled opsonized E. coli was used to determine the general phagocytic activity (ingestion of one or more bacteria per cell) and the individual cellular phagocytic activity (number of bacteria per cell). For evaluation of oxidative burst activity, unlabeled opsonized E. coli, fMLP, PMA LPS and activated- or non-activated-platelets (30:1) were used as stimulants and DCFDA as a fluoregenic substrate (Invitrogen) accordingly with manufacturers' instructions.
# [5] = competition with unlabelled substance
# [6] = LPS 0.1 μg/mL with or without αTREM-1
sequence,measurement,setting,value
LQEEDAGEYGCMVDGAR (listed as Homo sapiens) [LR17],binding of FITC-labelled LR17 to platelets,"[1]; FITC-labelled peptide 1 or 5 μg/mL, resting or thrombin-activated (5 UI/mL) platelets",binds both to resting and thrombin-activated platelets
same,effect of co-incubation on FITC-labelled LP17 binding to platelets,[1]; [5],decreased
same,effect of co-incubation on FITC-labelled LR17 binding to platelets,[1]; [5],reversed
same,plasma IL-6 and IL-10 concentrations,"male Balb/c mice; 100 μg i.p. 2 hours after surgery, 24 hours after surgery",decreased
same,repeated injections versus single dose administration,"male Balb/c mice; 3 injections of 100 μg at 2, 6 and 24 hours",not superior
same,protection against lethality (survival),"male Balb/c mice; 50, 100 or 200 μg, also administered 24 h after onset of sepsis, survival over 1 wk, Log Rank test",dose-dependent significant protection
same,septicaemia (blood bacterial counts),male Balb/c mice; 24 hours,almost completely prevented septicaemia
same,IL-6 and IL-10 in broncho-alveolar lavage fluid and peritoneal lavage fluid,male Balb/c mice; 24 hours after surgery,decreased
same,lung histological alterations,male Balb/c mice; 24 hours after the CLP,attenuated
same,cell infiltration in peritoneum and alveolar space,"male Balb/c mice; mouse, in vivo",reduced
same,coagulation abnormalities (D-dimer and TATc plasma and alveolar concentrations),"male Balb/c mice; mouse, in vivo",prevented
same,"plasma levels of C5a, IL-1ra, IL16, MCP-1, MIP-la, MIP-2 (cytokine array)","male Balb/c mice; mouse, in vivo",decreased concentration
same,CARD9-MALT1-BCL10 complex formation,TREM-1 [2]; [6],decreased
same,CARD9-MALT1-BCL10 complex formation,"TREM-1 [2]; αTREM-1 5 μg/mL, 20 minutes",reversed
same,TNF-α synthesis by silenced monocytes,[3],did not show any effect
same,intracellular ROS production,TREM-1 [4]; [6],decreased
same,ROS production by neutrophils,"TREM-1 [4]; TREM-1 agonist and platelets as inducers, 2 hours",partly prevented
